From US20110144027A1, “PHARMACEUTICAL COMPOSITIONS FOR PROMOTING WOUND HEALING” (priority 2006, published 2011)
Read-outs that look alike come from different tables or passages of the source.

Columns and labels:
wound [1] = details: healthy BALB/C mice; cited from earlier work
[2] = Toxicokinetics after topical application on full-thickness wounds in minipigs; assay type: in vivo, Gottingen SPF minipigs; details: for AUC(0-t) / Cmax / half-life / Tmax: Gottingen SPF, minipig, plasma, topical or ocular, 2000 ug/day, topical 2000 μg/day (500 μg/g Gel), Day 6; for AUC(0-t): read-out: AUC24 h (Mean ± CV); for Cmax: read-out: Cmax (Mean ± CV); for half-life: read-out: T1/2 (Mean ± CV) (converted); for Tmax: read-out: Tmax (Mean ± CV)
Description: (§1) Testing of concentrations of 2-[2-(4-Chlorophenyl)ethoxy]adenosine in blood plasma: 2-[2-(4-Chlorophenyl)ethoxy]adenosine concentrations in blood plasma taken from a patient may be quantitated. A non-limiting example of an assay to quantitate 2-[2-(4-Chlorophenyl)ethoxy]adenosine in blood plasma is an HPLC/MS/MS bioanalytical assay. The assay used an organic precipitation of protein accomplished with addition of acetonitrile to plasma followed by a thorough mixing and centrifugation to separate the denatured protein and supernatant. Aliquots of the supernatant were injected onto a HPLC system equipped with a triple quadrapole mass spectrometer which provided highly specific and sensitive detection of the molecular ion of interest. Concentrations of 2-[2-(4-Chlorophenyl)ethoxy]adenosine were determined from peak area ratios of 2-[2-(4-Chlorophenyl)ethoxy]adenosine and the internal standard using weighted linear regression curves (1/×). The assay was highly robust and reproducible within the validated range of 1.0 to 100 ng/mL.
The objective of this study was to assess the local and the systemic toxicity of the 2-[2-(4-chlorophenyl)ethoxy]adenosine formulation of the instant invention. The testing occurred in Gottingen SPF minipigs. 20 μg/g, 100 μg/g and 500 μg/g concentration of the 2-[2-(4-chlorophenyl)ethoxy]adenosine formulation were created using the methods described in Example I. The 20 μg/g and 100 μg/g formulation are described below. The components of the 500 μg/g formulation and the placebo control were as described in Example 1.
The total dosage of 2-[2-(4-chlorophenyl)ethoxy]adenosine per minipig ranged from 80 μg to 2000 μg/day. The formulation was administered topically once per day in 1 mL (1 g) doses at 20 μg/g, 100 μg/g and 500 μg/g concentration per wound per administration on surgically established full-thickness wounds until wound closure. Each minipig had multiple (4) wounds that received treatment.
A total of 40 Gottingen SPF minipigs (20 males and 20 females) were included in the study. The animals were allocated into four groups each of 4 males and 4 females. In addition, 4 animals (2 of each sex per group), were included as recovery animals for the control/placebo group (Group 1) and the high-dose group (Group 4).
From Day 1 through Day 13, 2-[2-(4-chlorophenyl)ethoxy]adenosine formulation at either 20 μg/g, 100 μg/g or 500 μg/g concentration was applied topically on surgically established circular full-thickness wounds (wound diameter 20 mm; 4 wounds per animal) on a daily basis in a dose volume of approximately 1 mL per wound until wound closure. The dose levels and animal numbers are provided Table 20.
Toxicokinetic sampling occurred on Day 6 at the following time points: pre-treatment, and 0.5, 1, 3, 5, 7, 9, 12 and 24 hours post-treatment. […] Non-compartmental pharmacokinetic analysis of plasma 2-[2-(4-chlorophenyl)ethoxy]adenosine concentration profiles in Groups 2, 3, and 4 (low-, mid- and high-dose) animals yielded pertinent pharmacokinetic parameters, which are summarized by treatment and gender in Table 20.

[3] = Systemic absorption in patients (plasma HPLC/MS/MS assay); assay type: in vivo, human; details: any topical dose concentration (5, 50, 500 μg/g), initial, day 16 and day 28, LLOQ 1.0 ng/mL
Description: as §1
2-[2-(4-Chlorophenyl)ethoxy]adenosine was administered to patients with chronic, neuropathic, diabetic foot ulcers (DFU). […]

wound [4] = details: rats; cited from earlier work

Compound | wound healing (wound [1]) | AUC(0-t) ([2]; Female minipigs) [ng·h/mL] | Cmax ([2]; Female minipigs) [ng/mL] | half-life ([2]; Female minipigs) [h] | Tmax ([2]; Female minipigs) [h] | AUC(0-t) ([2]; Male minipigs) [ng·h/mL] | Cmax ([2]; Male minipigs) [ng/mL] | half-life ([2]; Male minipigs) [h] | Tmax ([2]; Male minipigs) [h] | absorption into the systemic circulation from topical administration in open wounds ([2]; minipigs, wound healing phase, 80-2000 μg/day) | systemic absorption (blood plasma, HPLC/MS/MS assay) [3] | rate of wound closure (wound [4])
Nc1nc(OCCc2ccc(Cl)cc2)nc2c1ncn2[C@@H]1O[C@H](CO)[C@@H](O)[C@H]1O [2-[2-(4-chlorophenyl)ethoxy]adenosine] | promote wound healing | 6.65 | 0.45 | 28.4 | 7.5 | 7.25 | 0.46 | 122 | 7.8 | minimal | No systemic absorption | –
CCNC(=O)[C@H]1O[C@@H](n2cnc3c(N)nc(NCCc4ccc(CCC(=O)O)cc4)nc32)[C@H](O)[C@@H]1O [CGS 21680, 2-[p-(carboxyethyl)phenylethylamino]-5′-N-ethylcarboxamidoadenosine] | – | – | – | – | – | – | – | – | – | – | – | increase the rate of wound closure
